{"source": "paper PMC4296974", "about": "(Bioorganic & medicinal chemistry letters, 2014)", "key": {"[1]": {"target": "NTS1 (Rattus norvegicus, UniProt P20789)", "sequence (P20789 whole entry)": "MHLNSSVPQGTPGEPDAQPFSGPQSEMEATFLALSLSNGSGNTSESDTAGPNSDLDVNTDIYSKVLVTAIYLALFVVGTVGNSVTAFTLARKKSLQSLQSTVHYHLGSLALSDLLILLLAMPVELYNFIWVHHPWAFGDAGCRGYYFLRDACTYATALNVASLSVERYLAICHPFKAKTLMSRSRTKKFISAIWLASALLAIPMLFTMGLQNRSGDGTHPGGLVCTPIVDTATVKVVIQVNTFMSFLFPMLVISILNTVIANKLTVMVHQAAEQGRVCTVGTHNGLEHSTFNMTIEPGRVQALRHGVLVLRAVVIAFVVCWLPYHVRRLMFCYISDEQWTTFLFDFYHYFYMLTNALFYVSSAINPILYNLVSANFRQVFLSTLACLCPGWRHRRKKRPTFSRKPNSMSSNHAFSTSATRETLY", "assay": "FLIPR calcium mobilization assay at NTS1", "type": "cell-based", "settings": "17: agonist and antagonist screen at 10 μM; 9, 14b, 16b: data not shown"}, "[2]": {"target": "T1, rNTS2 (Rattus norvegicus, UniProt Q63384)", "T1 sequence (Q63384 1-416)": "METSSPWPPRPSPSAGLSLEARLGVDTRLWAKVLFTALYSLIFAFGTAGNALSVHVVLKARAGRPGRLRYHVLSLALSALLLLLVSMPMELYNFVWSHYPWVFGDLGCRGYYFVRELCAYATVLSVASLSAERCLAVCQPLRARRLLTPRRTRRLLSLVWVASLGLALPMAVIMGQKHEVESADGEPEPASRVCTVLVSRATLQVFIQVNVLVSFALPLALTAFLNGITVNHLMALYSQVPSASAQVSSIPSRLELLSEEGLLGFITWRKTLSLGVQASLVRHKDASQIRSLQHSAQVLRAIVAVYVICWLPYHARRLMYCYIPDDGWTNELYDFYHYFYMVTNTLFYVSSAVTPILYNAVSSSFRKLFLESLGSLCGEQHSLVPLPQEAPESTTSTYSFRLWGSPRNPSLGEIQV", "assay": "FLIPR calcium mobilization assay in CHO cell line stably expressing rNTS2", "type": "cell-based"}, "[3]": {"target": "T1, rNTS2", "assay": "[125I]NT competition binding assay at NTS2", "settings": "relative to 9"}, "[4]": {"target": "T1, rNTS2", "settings": "Emax value is % of 4; cited from earlier work"}, "[5]": {"target": "rNTS1 (Rattus norvegicus, UniProt P20789)", "sequence (P20789 whole entry)": "as the sequence (P20789 whole entry) above", "settings": "read-out: Binding Assay NTS1 Ki; [125I]NT, bound; cited from earlier work"}}, "data": [{"compound": "O=C(O)c1cc(Nc2nc(-c3ccccc3)c3cc(Cl)ccc3n2)ccc1O", "note": "[Compound 17]", "values": [{"measurement": "Activity in the calcium mobilization assay at NTS1", "setting": "[1]", "result": "devoid of activity"}]}, {"compound": "COc1cccc(OC)c1-c1nc(C(=O)NC2(C(=O)O)CCCCC2)nc2ccc(Cl)cc12", "note": "[Compound 16b]", "values": [{"measurement": "Activity in the calcium mobilization assay at NTS1", "setting": "[1]", "result": "failed to show activity"}, {"measurement": "Fold lower activity than 9 in NTS2 FLIPR assay (EC50)", "setting": "[2]; relative to 9", "result": "roughly 10 fold"}, {"measurement": "Fold weaker than 9 in NTS2 binding (Ki)", "setting": "[3]", "result": 11, "unit": "fold"}]}, {"compound": "C[C@@H]1CN([C@H]2CC[C@](C#N)(c3ccc(F)cc3)CC2)CC[C@]1(C(=O)O)c1ccccc1", "note": "[Compound 5, levocabastine]", "values": [{"measurement": "FLIPR Assay NTS2 Emax", "setting": "[4]", "result": "16±3", "unit": "%"}, {"measurement": "Ki", "setting": "[5]", "result": "> 25", "unit": "µM"}]}, {"compound": "COc1cccc(OC)c1-c1cc(C(=O)NC2(C(=O)O)C3CC4CC(C3)CC2C4)nn1-c1ccc(C(=O)N(C)CCCN(C)C)cc1C(C)C", "note": "(centres unmarked) [Compound 4, reference compound]", "values": [{"measurement": "Emax", "setting": "[2]; CHO, read-out: FLIPR Assay NTS2 Emax", "result": "100 ± 5", "unit": "%"}]}, {"compound": "COc1cccc(OC)c1-c1cc(C(=O)N[C@@H](CC(C)C)C(=O)O)nn1-c1ccc(F)cc1", "note": "[Compound 21, reference compound]", "values": [{"measurement": "inhibition at 10 µM", "setting": "[2]; CHO, read-out: % inhibition of calcium release mediated by 4 at NTS2", "result": "< 30", "unit": "%"}]}, {"compound": "COc1cccc(OC)c1-c1nc(C(=O)N[C@H](C(=O)O)C2CCCCC2)nc2ccc(Cl)cc12", "note": "[Compound 14b]", "values": [{"measurement": "Activity in the calcium mobilization assay at NTS1", "setting": "[1]", "result": "failed to show activity"}, {"measurement": "Fold less active than NT in the NTS2 functional assay", "setting": "[2]; IC50 comparison with NT", "result": 25, "unit": "fold"}, {"measurement": "Fold weaker than 9 in NTS2 binding (Ki)", "setting": "[3]", "result": 5, "unit": "fold"}]}]}
